As usually defined, the IC50 is the concentration that gives 50% inhibition.

Each structure is given as a SMILES string. Bounds are passed on as bounds.

In one test the test system is amyloid β production in transfected H4 (human neuroglioma) cells stably expressing APP constructs. Briefly: In vitro cell-based assay of inhibitors of amyloid β production (ELISA). The conditions noted are these: Homo sapiens, 16 h, transfected H4 cells stably expressing APP constructs; approximately 16 hours incubation; amyloid β in medium by ELISA; read-out: ACTIVITY (IC50, inhibition of amyloid β production). Summed up: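 Aβ secreted into the medium was determined by a two-antibody ELISA specific for the Aβ C-terminus, calibrated with known Aβ amounts. Before that, compounds (10-100 μM initially) were left on the cells for roughly 16 hours.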
Background: An ELISA detects its analyte on a solid surface through an enzyme-linked reagent.
For `C[C@H](CCCN(c1cc(Cl)ccc1Cl)S(=O)(=O)c1ccc(Cl)cc1)N(c1cc(Cl)ccc1Cl)S(=O)(=O)c1ccc(Cl)cc1` [Example 1158, 4-chloro-N-(2,5-dichlorophenyl)-N-[4-[N-(2,5-dichlorophenyl)-N-[(4-chlorophenyl)sulfonyl]amino]-1(R)-methylbutyl]benzenesulfonamide], the IC50 was over 500 nM.

Still in this test, the particulars now being: transfected H4 cells stably expressing APP constructs; approximately 16 hours incubation; amyloid β in medium by ELISA; read-out: ACTIVITY (IC50, inhibition of amyloid β production).
For `CSC1CCN(CC[C@@H](C)N(c2cc(Cl)ccc2Cl)S(=O)(=O)c2ccc(Cl)cc2)CC1` [Example 1156, 4-chloro-N-(2,5-dichlorophenyl)-N-[3-[(4-methylthio)-1-piperidinyl]-1(R)-methylpropyl]benzenesulfonamide], the IC50 lay in the range of 100 to 500 nM. Still for that read-out and setting: as for `C[C@H](CCCN1CCC(CS(C)(=O)=O)CC1)N(c1cc(Cl)ccc1Cl)S(=O)(=O)c1ccc(Cl)cc1` [Example 1157, 4-chloro-N-(2,5-dichlorophenyl)-N-[4-[[4-(methylsulfonyl)methyl]-1-piperidinyl]-1(R)-methylbutyl)benzenesulfonamide], the figure is 100 to 500 nM. The same measure, in the same setting: as for `CSC1CCCN(CC[C@@H](C)N(c2cc(Cl)ccc2Cl)S(=O)(=O)c2ccc(Cl)cc2)C1` (stereo partly drawn) [Example 1159], the figure is over 500 nM; as for `CC[S+]([O-])CCC[C@@H](C)N(c1cc(Cl)ccc1F)S(=O)(=O)c1ccc(Cl)cc1` (stereo partly drawn) [Example 1160, 4-chloro-N-(5-chloro-2-fluorophenyl)-N-[1(R)-methyl-(4-ethylsulfinyl)butyl]benzenesulfonamide], at most 25 nM. `CC(C)S(=O)(=O)CCC[C@@H](C)N(c1cc(Cl)ccc1Cl)S(=O)(=O)c1ccc(Cl)cc1` [Example 1161]: the IC50 was at most 25 nM. As for `C[C@H](CCCS(C)(=O)=O)N(c1cc(Cl)ccc1Cl)S(=O)(=O)c1ccc(Cl)cc1` [Example 1162, 4-chloro-N-[2,5-dichlorophenyl]-N-[1(R)-methyl-(4-methylsulfonyl]butyl]benzenesulfonamide], the IC50 is at most 25 nM.

Regarding `CCS(=O)(=O)CCC[C@@H](C)N(c1cc(Cl)ccc1F)S(=O)(=O)c1ccc(Cl)cc1` [Example 1163, 4-chloro-N-[5-chloro-2-fluorophenyl]-N-[1(R)-methyl-(4-ethylsulfonyl)butyl]benzenesulfonamide], the IC50 is at most 25 nM. As to `CCS(=O)(=O)CCC[C@@H](C)N(c1cc(Cl)ccc1Cl)S(=O)(=O)c1ccc(Cl)cc1` [Example 1164, 4-chloro-N-[2,5-dichlorophenyl]-N-[1(R)-methyl-(4-ethylsulfonyl]butyl]benzenesulfonamide], the IC50 is at most 25 nM. On the same count and under the same terms, as for `C[C@H](CCCS(C)(=O)=O)N(c1cc(Cl)ccc1F)S(=O)(=O)c1ccc(Cl)cc1` [Example 1165, 4-chloro-N-[5-chloro-2-fluorophenyl]-N-[1(R)-methyl-(4-methylsulfonyl)butyl]benzenesulfonamide], the figure is at most 25 nM; as for `CCS(=O)(=O)CCC[C@@H](C)N(c1cc(F)ccc1F)S(=O)(=O)c1ccc(Cl)cc1` [Example 1166, 4-chloro-N-[2,5-difluorophenyl]-N-[1(R)-methyl-(4-ethylsulfonyl)butyl]benzenesulfonamide], at most 25 nM; as for `C[C@H](CCC[S+](C)[O-])N(c1cc(Cl)ccc1F)S(=O)(=O)c1ccc(Cl)cc1` (stereo partly drawn) [Example 1167, 4-chloro-N-[5-chloro-2-fluorophenyl]-N-[1(R)-methyl-(4-methylsulfinyl)butyl]benzenesulfonamide], at most 25 nM.

`CC(C)[S+]([O-])CCC[C@@H](C)N(c1cc(Cl)ccc1Cl)S(=O)(=O)c1ccc(Cl)cc1` (stereo partly drawn) [Example 1169]: the IC50 is at most 25 nM. Same read-out and setting: as for `C[C@H](CCCS(C)(=O)=O)N(c1cc(F)ccc1F)S(=O)(=O)c1ccc(Cl)cc1` [Example 1170, 4-chloro-N-[2,5-difluorophenyl]-N-[1(R)-methyl-(4-methylsulfonyl)butyl]benzenesulfonamide], the figure is at most 25 nM; as for `C[C@H](CCC[S+](C)[O-])N(c1cc(Cl)ccc1Cl)S(=O)(=O)c1ccc(Cl)cc1` (stereo partly drawn) [Example 1171, 4-chloro-N-[2,5-dichlorophenyl]-N-[1(R)-methyl-(4-methylsulfinyl)butyl]benzenesulfonamide], at most 25 nM.

These data come from patent US6967196B1, “Sulfonamide compounds and uses thereof” (Bristol-Myers Squibb Company, priority 1999, dated 2005).
